Measured values from patent publication US20250236608A1, “EGFR INHIBITORS” (Blueprint Medicines Corporation, priority 2022, published 2025).

How the values were obtained:
[1] = target: pEGFR (Tyr1068) in PC-9 cells (Ex19Del) (Homo sapiens (Human), UniProt P00533, DEL746-750); test: PC-9 pEGFR AlphaLISA assay; type: cell-based; conditions: 4 hours incubation, p-EGFR (Tyr1068) AlphaLISA, read-out: Ext pEGFR_PC-9 Ex19Del IC50
Method in brief: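 Phospho-EGFR (Tyr1068) was quantified by AlphaLISA SureFire Ultra in lysates of PC-9 cells exposed for 4 h to compound (4-fold, 10-point dilutions).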

[2] = target: EGFR L858R (Homo sapiens (Human), UniProt P00533, L858R); test: Biochemical EGFR inhibition assay, EGFR L858R; conditions: Caliper mobility shift; 1.0 mM ATP or ATP Km; read-out: Enz EGFR_L858R IC50
Sequence of EGFR L858R (P00533 25-1210 L858R): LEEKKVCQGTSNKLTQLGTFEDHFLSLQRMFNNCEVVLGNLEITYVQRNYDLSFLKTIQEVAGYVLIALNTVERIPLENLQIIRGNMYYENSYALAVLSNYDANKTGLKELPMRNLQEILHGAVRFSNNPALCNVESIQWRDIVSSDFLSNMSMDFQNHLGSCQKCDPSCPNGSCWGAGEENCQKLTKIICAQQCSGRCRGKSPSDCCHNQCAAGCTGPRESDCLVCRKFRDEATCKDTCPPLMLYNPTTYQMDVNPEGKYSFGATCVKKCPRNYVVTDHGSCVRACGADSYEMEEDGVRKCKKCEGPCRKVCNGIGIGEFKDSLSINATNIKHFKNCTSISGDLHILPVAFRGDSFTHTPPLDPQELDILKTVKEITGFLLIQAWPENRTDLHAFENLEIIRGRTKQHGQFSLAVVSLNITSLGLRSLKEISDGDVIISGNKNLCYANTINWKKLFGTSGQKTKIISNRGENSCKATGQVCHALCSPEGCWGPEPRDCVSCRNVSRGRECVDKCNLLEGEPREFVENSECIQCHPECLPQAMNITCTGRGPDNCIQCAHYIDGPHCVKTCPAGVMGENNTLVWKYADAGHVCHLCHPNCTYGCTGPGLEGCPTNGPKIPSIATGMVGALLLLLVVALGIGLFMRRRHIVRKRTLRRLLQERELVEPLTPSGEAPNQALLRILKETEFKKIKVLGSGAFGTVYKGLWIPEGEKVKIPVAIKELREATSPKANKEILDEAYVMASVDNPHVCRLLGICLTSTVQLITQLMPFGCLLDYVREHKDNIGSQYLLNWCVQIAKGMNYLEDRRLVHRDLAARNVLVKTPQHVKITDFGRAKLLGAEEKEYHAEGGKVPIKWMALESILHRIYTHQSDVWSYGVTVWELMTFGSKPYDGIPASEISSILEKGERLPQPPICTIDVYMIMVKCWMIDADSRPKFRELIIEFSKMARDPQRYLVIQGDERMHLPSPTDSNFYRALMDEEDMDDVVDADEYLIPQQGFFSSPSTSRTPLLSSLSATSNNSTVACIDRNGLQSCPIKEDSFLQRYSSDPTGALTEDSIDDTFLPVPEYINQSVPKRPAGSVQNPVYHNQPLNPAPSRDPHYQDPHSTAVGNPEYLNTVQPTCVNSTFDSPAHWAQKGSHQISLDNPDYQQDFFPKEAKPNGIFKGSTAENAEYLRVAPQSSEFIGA

[3] = target: EGFR (d746-750) (Homo sapiens (Human), UniProt P00533, DEL746-750); test: Biochemical EGFR inhibition assay, EGFR (d746-750); conditions: Caliper mobility shift; 1.0 mM ATP or ATP Km; read-out: Enz EGFR_Exon19-del746-750 IC50
Sequence of EGFR (d746-750) (P00533 other isoform, or with tags, fused parts or gaps del 1-694/del 746-750 limits assumed): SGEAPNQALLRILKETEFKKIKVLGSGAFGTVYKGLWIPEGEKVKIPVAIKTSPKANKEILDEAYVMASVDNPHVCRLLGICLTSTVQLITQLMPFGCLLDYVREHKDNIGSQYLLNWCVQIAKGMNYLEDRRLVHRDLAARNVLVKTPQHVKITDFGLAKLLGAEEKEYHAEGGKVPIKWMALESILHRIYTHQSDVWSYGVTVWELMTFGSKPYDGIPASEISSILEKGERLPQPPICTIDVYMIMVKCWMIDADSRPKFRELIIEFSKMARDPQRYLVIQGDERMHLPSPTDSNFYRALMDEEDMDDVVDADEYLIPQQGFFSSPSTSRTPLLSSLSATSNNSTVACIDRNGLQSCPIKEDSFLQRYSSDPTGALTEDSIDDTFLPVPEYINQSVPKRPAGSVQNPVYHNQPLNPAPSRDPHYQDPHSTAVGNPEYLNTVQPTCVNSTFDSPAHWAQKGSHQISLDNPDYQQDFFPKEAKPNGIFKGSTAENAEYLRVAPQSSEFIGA

Sequence of pEGFR (Tyr1068) in PC-9 cells (Ex19Del) (P00533 other isoform, or with tags, fused parts or gaps del 746-750): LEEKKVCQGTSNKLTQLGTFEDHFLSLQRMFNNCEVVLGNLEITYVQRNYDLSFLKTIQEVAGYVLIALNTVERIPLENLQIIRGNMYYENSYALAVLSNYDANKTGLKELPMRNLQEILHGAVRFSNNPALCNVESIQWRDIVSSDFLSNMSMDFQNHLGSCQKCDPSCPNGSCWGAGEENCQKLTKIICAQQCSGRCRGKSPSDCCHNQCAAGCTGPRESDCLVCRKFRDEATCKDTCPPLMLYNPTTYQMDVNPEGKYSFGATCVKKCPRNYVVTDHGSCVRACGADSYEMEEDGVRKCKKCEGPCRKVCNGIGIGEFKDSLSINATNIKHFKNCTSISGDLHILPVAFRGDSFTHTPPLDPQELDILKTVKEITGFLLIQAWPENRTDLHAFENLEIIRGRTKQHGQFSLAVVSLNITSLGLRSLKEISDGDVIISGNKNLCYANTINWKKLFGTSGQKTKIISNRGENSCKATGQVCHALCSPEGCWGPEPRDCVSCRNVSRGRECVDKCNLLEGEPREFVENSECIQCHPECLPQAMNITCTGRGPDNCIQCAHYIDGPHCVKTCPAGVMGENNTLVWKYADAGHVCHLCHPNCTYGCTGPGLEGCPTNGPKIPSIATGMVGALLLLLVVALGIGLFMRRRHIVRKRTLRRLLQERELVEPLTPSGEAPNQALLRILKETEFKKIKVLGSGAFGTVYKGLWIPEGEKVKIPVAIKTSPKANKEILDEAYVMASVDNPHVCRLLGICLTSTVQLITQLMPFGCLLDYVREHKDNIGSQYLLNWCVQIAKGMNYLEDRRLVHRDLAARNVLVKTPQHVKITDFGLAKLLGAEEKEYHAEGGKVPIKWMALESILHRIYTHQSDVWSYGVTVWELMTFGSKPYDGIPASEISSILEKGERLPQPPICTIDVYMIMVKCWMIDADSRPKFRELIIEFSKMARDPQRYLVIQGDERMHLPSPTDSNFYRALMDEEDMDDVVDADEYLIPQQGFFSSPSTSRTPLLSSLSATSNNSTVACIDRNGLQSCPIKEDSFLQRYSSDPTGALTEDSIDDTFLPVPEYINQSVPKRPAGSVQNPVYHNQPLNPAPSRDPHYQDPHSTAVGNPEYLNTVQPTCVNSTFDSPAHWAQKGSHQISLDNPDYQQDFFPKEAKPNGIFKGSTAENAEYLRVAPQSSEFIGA

`COc1cc2ncnc(-c3cn(C)nc3-c3ccccc3)c2nc1O[C@H](C)c1nccs1` [Example 32, (R)-2-(1-((7-methoxy-4-(1-methyl-3-phenyl-1H-pyrazol-4-yl)pyrido[3,2-d]pyrimidin-6-yl)oxy)ethyl)thiazole] was tested, and the IC50 [1] was 1.2 nM, the IC50 [2] was 1.1 nM and the IC50 [3] was 0.8 nM.
Compound `COc1cc2ncnc(-c3cn(CC(F)F)nc3-c3ccccc3)c2cc1NC(=O)c1cnsc1` [Example 271, N-(4-(1-(2,2-difluoroethyl)-3-phenyl-1H-pyrazol-4-yl)-7-methoxyquinazolin-6-yl)isothiazole-4-carboxamide] has an IC50 [1] of 1 nM, an IC50 [2] of 1.3 nM and an IC50 [3] of 0.8 nM.
With `COc1cc2ncnc(-c3cn(C)nc3-c3ccccc3)c2cc1-c1cnc2c(ccn2C)c1` [Example 140, 7-methoxy-6-(1-methyl-1H-pyrrolo[2,3-b]pyridin-5-yl)-4-(1-methyl-3-phenyl-1H-pyrazol-4-yl)quinazoline] the IC50 [1] was 6.7 nM, the IC50 [2] was 4.5 nM and the IC50 [3] was 1.9 nM.
`COc1cc2ncnc(-c3cn(CC(F)F)nc3-c3ccccc3)c2nc1NC(=O)C1(C(F)(F)F)CC1` [Example 370, N-(4-(1-(2,2-difluoroethyl)-3-phenyl-1H-pyrazol-4-yl)-7-methoxypyrido[3,2-d]pyrimidin-6-y1)-1-(trifluoromethyl)cyclopropane-1-carboxamide] gave an IC50 [1] of 0.4 nM, an IC50 [2] of 1.1 nM and an IC50 [3] of 0.7 nM.
In the case of `COc1cc2ncnc(-c3cn(C)nc3-c3ccccc3)c2cc1NC(=O)C1CC(OC)C1` (stereo not drawn) [Example 215, 3-methoxy-N-(7-methoxy-4-(1-methyl-3-phenyl-1H-pyrazol-4-yl)quinazolin-6-yl)cyclobutane-1-carboxamide], the IC50 [1] is reported as 1.1 nM, the IC50 [2] is reported as 2.7 nM and the IC50 [3] is reported as 1.6 nM.
In the case of `CCn1cc(-c2ncnc3cc(OC)c(NC(=O)C45CC(N(C)C)(C4)C5)nc23)c(-c2ccc(F)cc2)n1` [Example 405, 3-(dimethylamino)-N-(4-(1-ethyl-3-(4-fluorophenyl)-1H-pyrazol-4-yl)-7-methoxypyrido[3,2-d]pyrimidin-6-yl)bicyclo[1.1.1]pentane-1-carboxamide], the IC50 [1] is reported as 1.7 nM, the IC50 [2] is reported as 2 nM and the IC50 [3] is reported as 0.8 nM.
`COc1cc2ncnc(-c3cn(CCN(C)C)nc3-c3ccccc3)c2cc1NC(=O)C12CC(C1)C2` [Example 308, N-(4-(1-(2-(dimethylamino)ethyl)-3-phenyl-1H-pyrazol-4-yl)-7-methoxyquinazolin-6-yl)bicyclo[1.1.1]pentane-1-carboxamide] gave an IC50 [1] of 6.1 nM, an IC50 [2] of 7.3 nM and an IC50 [3] of 3.5 nM.
In the case of `COc1cc2ncnc(-c3cn(C)nc3-c3ccccc3)c2cc1NC(=O)N1CCOC(C)(C)C1` [Example 184, N-[7-methoxy-4-(1-methyl-3-phenyl-1H-pyrazol-4-yl)quinazolin-6-yl]-2,2-dimethylmorpholine-4-carboxamide], the IC50 [1] is reported as 7.9 nM, the IC50 [2] is reported as 3.5 nM and the IC50 [3] is reported as 1.8 nM.
`COc1cc2ncnc(-c3cn(C)nc3-c3ccccc3)c2cc1OC(=O)N1CCN2CCCC2C1` (stereo in doubt) [Example 84, 7-methoxy-4-(1-methyl-3-phenyl-1H-pyrazol-4-yl)quinazolin-6-yl (S)-hexahydropyrrolo[1,2-a]pyrazine-2(1H)-carboxylate] showed an IC50 [1] of 6.5 nM, an IC50 [2] of 4.9 nM and an IC50 [3] of 3.3 nM.
In the case of `CCOc1cc2ncnc(-c3cn(C)nc3-c3ccccc3)c2cc1CO` [Example 99, (7-ethoxy-4-(1-methyl-3-phenyl-1H-pyrazol-4-yl)quinazolin-6-yl)methanol], the IC50 [1] is reported as 4.2 nM, the IC50 [2] is reported as 2 nM and the IC50 [3] is reported as 1.1 nM.
For `CCOc1cc2ncnc(-c3cn(C)nc3-c3ccc(F)cc3)c2nc1NC(=O)[C@@]12C[C@@H]1CN(C)C2` (single isomer, unassigned) [Example 375, (1S,5S)—N-(7-ethoxy-4-(3-(4-fluorophenyl)-1-methyl-1H-pyrazol-4-yl)pyrido[3,2-d]pyrimidin-6-yl)-3-methyl-3-azabicyclo[3.1.0]hexane-1-carboxamide or (1R,5R)—N-(7-ethoxy-4-(3-(4-fluorophenyl)-1-methyl-1H-pyrazol-4-yl)pyrido[3,2-d]pyrimidin-6-yl)-3-methyl-3-azabicyclo[3.1.0]hexane-1-carboxamide], the IC50 [1] was 2.5 nM, the IC50 [2] was 2.4 nM and the IC50 [3] was 0.9 nM.
For `COc1cc2ncnc(-c3cn(C)nc3-c3ccccc3)c2cc1-c1ccc2c(c1)CN(C)C2=O` [Example 137, 5-(7-methoxy-4-(1-methyl-3-phenyl-1H-pyrazol-4-yl)quinazolin-6-yl)-2-methylisoindolin-1-one], the IC50 [1] was 3.6 nM, the IC50 [2] was 3.9 nM and the IC50 [3] was 2.2 nM.
`COc1cc2ncnc(-c3cn(C)nc3-c3ccccc3)c2cc1-c1cccc2[nH]ncc12` [Example 143, 6-(1H-indazol-4-yl)-7-methoxy-4-(1-methyl-3-phenyl-1H-pyrazol-4-yl)quinazoline] gave an IC50 [1] of 3.2 nM, an IC50 [2] of 4.5 nM and an IC50 [3] of 1.7 nM.
Compound `COc1cc2ncnc(-c3cn(C)nc3-c3ccccc3)c2cc1NC(=O)c1ccnn1C(F)(F)F` [Example 204, N-(7-methoxy-4-(1-methyl-3-phenyl-1H-pyrazol-4-yl)quinazolin-6-yl)-1-(trifluoromethyl)-1H-pyrazole-5-carboxamide] has an IC50 [1] of 1.4 nM, an IC50 [2] of 2.1 nM and an IC50 [3] of 1.3 nM.
Work on `CCn1cc(-c2ncnc3cc(OC)c(NC(=O)C45CC(C4)C5)nc23)c(-c2ccccc2)n1` [Example 315, N-(4-(1-ethyl-3-phenyl-1H-pyrazol-4-yl)-7-methoxypyrido[3,2-d]pyrimidin-6-yl)bicyclo[1.1.1]pentane-1-carboxamide] yielded an IC50 [1] of 0.6 nM, an IC50 [2] of 1.7 nM and an IC50 [3] of 1.1 nM.
Work on `COc1cc2ncnc(-c3cn(CC(F)F)nc3-c3ccccc3)c2nc1NC(=O)c1ccc(C2CC2)nc1` [Example 358, 6-cyclopropyl-N-(4-(1-(2,2-difluoroethyl)-3-phenyl-1H-pyrazol-4-yl)-7-methoxypyrido[3,2-d]pyrimidin-6-yl)nicotinamide] yielded an IC50 [1] of 1 nM, an IC50 [2] of 1.8 nM and an IC50 [3] of 1.1 nM.
Work on `COc1cc2ncnc(-c3cn(C)nc3-c3ccccc3)c2cc1NC(=O)c1nc(C)ccc1F` [Example 330, 3-fluoro-N-(7-methoxy-4-(1-methyl-3-phenyl-1H-pyrazol-4-yl)quinazolin-6-yl)-6-methylpicolinamide] yielded an IC50 [1] of 0.8 nM, an IC50 [2] of 1 nM and an IC50 [3] of 0.7 nM.
In the case of `COc1cc2ncnc(-c3cn(C)nc3-c3ccccc3)c2nc1NC(=O)[C@]12C[C@H]1CN(C)C2` (single isomer, unassigned) [Example 393, (1R,5R)—N-(7-methoxy-4-(1-methyl-3-phenyl-1H-pyrazol-4-yl)pyrido[3,2-d]pyrimidin-6-yl)-3-methyl-3-azabicyclo[3.1.0]hexane-1-carboxamide or (1S,5S)—N-(7-methoxy-4-(1-methyl-3-phenyl-1H-pyrazol-4-yl)pyrido[3,2-d]pyrimidin-6-yl)-3-methyl-3-azabicyclo[3.1.0]hexane-1-carboxamide], the IC50 [1] is reported as 3.5 nM, the IC50 [2] is reported as 2.1 nM and the IC50 [3] is reported as 0.9 nM.
With `Cc1n[nH]c(-c2ccccc2)c1-c1ncnc2cc(-c3cnn(C)c3)ccc12` [Example 479, 7-(1-methyl-1H-pyrazol-4-yl)-4-(3-methyl-5-phenyl-1H-pyrazol-4-yl)quinazoline] the IC50 [1] was 25.9 nM, the IC50 [2] was 2.7 nM and the IC50 [3] was 2.1 nM.
With `COc1cc2ncnc(-c3sc(C)nc3-c3ccccc3)c2nc1NC(=O)C1CC1` [Example 437, N-(7-methoxy-4-(2-methyl-4-phenylthiazol-5-yl)pyrido[3,2-d]pyrimidin-6-yl)cyclopropanecarboxamide] the IC50 [1] was 4.2 nM, the IC50 [2] was 1.4 nM and the IC50 [3] was 0.8 nM.
`CCC(=O)Nc1cc2c(-c3cn(C4COC4)nc3-c3ccccc3)ncnc2cc1OC` [Example 249, N-(7-methoxy-4-(1-(oxetan-3-yl)-3-phenyl-1H-pyrazol-4-yl)quinazolin-6-yl)propionamide] was tested, and the IC50 [1] was 2.1 nM, the IC50 [2] was 2.2 nM and the IC50 [3] was 1.4 nM.
`COc1cc2ncnc(-c3cn(C)nc3-c3ccccc3)c2cc1O[C@H]1CCOC1` [Example 13, (S)-7-methoxy-4-(1-methyl-3-phenyl-1H-pyrazol-4-yl)-6-((tetrahydrofuran-3-yl)oxy)quinazoline] gave an IC50 [1] of 6.2 nM, an IC50 [2] of 4 nM and an IC50 [3] of 1.9 nM.
Compound `CCn1cc(-c2ncnc3cc(OC)c(NC(=O)[C@@]45C[C@@H]4CN(C)C5)nc23)c(-c2ccc(F)cc2)n1` (single isomer, unassigned) [Example 398, (1S,5S)—N-(4-(1-ethyl-3-(4-fluorophenyl)-1H-pyrazol-4-yl)-7-methoxypyrido[3,2-d]pyrimidin-6-yl)-3-methyl-3-azabicyclo[3.1.0]hexane-1-carboxamide or (1R,5R)—N-(4-(1-ethyl-3-(4-fluorophenyl)-1H-pyrazol-4-yl)-7-methoxypyrido[3,2-d]pyrimidin-6-yl)-3-methyl-3-azabicyclo[3.1.0]hexane-1-carboxamide] has an IC50 [1] of 1.3 nM, an IC50 [2] of 2.6 nM and an IC50 [3] of 1.4 nM.
For `COc1cc2ncnc(-c3cn(CC(F)F)nc3-c3ccccc3)c2cc1NC(=O)c1ccns1` [Example 272, N-(4-(1-(2,2-difluoroethyl)-3-phenyl-1H-pyrazol-4-yl)-7-methoxyquinazolin-6-yl)isothiazole-5-carboxamide], the IC50 [1] was 0.5 nM, the IC50 [2] was 1.2 nM and the IC50 [3] was 1 nM.
In the case of `COc1cc2ncnc(-c3cn(C)nc3-c3ccccc3)c2cc1OC1CCOCC1` [Example 14, 7-methoxy-4-(1-methyl-3-phenyl-1H-pyrazol-4-yl)-6-((tetrahydro-2H-pyran-4-yl)oxy)quinazoline], the IC50 [1] is reported as 5 nM, the IC50 [2] is reported as 3.6 nM and the IC50 [3] is reported as 2 nM.
